Source: patent EP0311473A1, “Fluorinated derivate of amino acids, useful as tensioactive or cotensioactive agents, and preparations for biomedical use containing these derivatives” (AP[…] […] TE[…] ATTA, priority 1987, dated 1989)

Assays:
[1] = Surface tension of aqueous solutions of the fluorinated derivatives; format: physicochemical; settings: solution in water, 20°C
Description: (§1) Pour illustrer le caractère fortement tensioactif des dérivés fluorés de l'invention, on a effectué des mesures à 20°C de la tension superficielle de solutions dans l'eau de ces dérivés, ainsi que de la tension interfaciale entre ces solutions et un composé perfluoré constitué par la perfluorodécaline.
(§2) On précise que dans les conditions de ces mesures: • - la tension superficielle de l'eau à 20°C est de 73,0± 0,2mN.m-^1, et • - la tension interfaciale entre l'eau et la perfluorodécaline à 20°C est de 56,0 ± 0,2 mN.m-^1.

[2] = Interfacial tension between aqueous solutions and perfluorodecalin; format: physicochemical; settings: solution in water vs perfluorodécaline, 20°C
Description: as §1, §2

[3] = system: cultures cellulaires lymphoblastoïdes de la souche Namalva; assay: Biocompatibility on lymphoblastoid cell cultures (growth, multiplication, subculturing); format: cell-based
Excerpt: Pour tester la biocompatibilité des dérivés de l'invention, on a vérifié que ces dérivés n'avaient pas d'effet sur la croissance, la multiplication et le repiquage de cultures cellulaires lymphoblastoïdes de la souche Namalva.

globules rouges humains = assay: Haemolysis test on human red blood cells; format: cell-based
souris = assay: Acute toxicity after intravenous administration to mice; format: in vivo
Description: Enfin, on a vérifié que les dérivés de l'invention ne présentaient pas de toxicité aigüe. Ainsi, l'administration intraveineuse à des souris, de 20 ml/kg des solutions à : • - 100 mg/I de (F-butyl-2')éthylbétaïne (ex. 4), • - 100 mg/l de (F-hexyl-2')éthylbétaïne (ex. 5), • - 100 mg/I de (F-octyl-2')éthylbétaïne (ex. 6), et • - 500 mg/I de (F-octyl-3"propylcarbamoyl)-4'butylbétaïne (ex. 14), dans de l'eau à 9 pour mille de NaCl, a été bien tolérée.

[4] = solution 500 mg/l in water with 9 per mille NaCl
[5] = solution 1 g/l in water with 9 per mille NaCl
[6] = solution 5 g/l in water with 9 per mille NaCl
[7] = 20 ml/kg of a 100 mg/l solution in water with 9 per mille NaCl

Compound	Tension superficielle ([1]; concentration 0,01 g/l)	Tension superficielle ([1]; concentration 0,1 g/l)	Tension interfaciale/ F-décaline ([2]; concentration 0,01 g/l)	Tension interfaciale/ F-décaline ([2]; concentration 0,1 g/l)	croissance, multiplication et repiquage des cultures [3, 4]	hémolyse des globules rouges humains (globules rouges humains; [4])	toxicité aigüe (tolérance) (souris; 20 ml/kg of a 500 mg/l solution in water with 9 per mille NaCl)	Tension superficielle ([1]; concentration 1 g/l)	Tension interfaciale/ F-décaline ([2]; concentration 1 g/l)	croissance, multiplication et repiquage des cultures [3, 5]	hémolyse des globules rouges humains (globules rouges humains; [6])	toxicité aigüe (tolérance) (souris; [7])	hémolyse des globules rouges humains (globules rouges humains; [5])
C[N+](C)(C)C(CCCCNC(=O)CCC(F)(F)C(F)(F)C(F)(F)C(F)(F)C(F)(F)C(F)(F)C(F)(F)C(F)(F)F)C(=O)[O-] (centres unmarked) [(triméthylammonio)-2 [(F-octyl)-3' propanoylamino] -6 hexanoate]	22,8 mN.m^-1	19,7 mN.m^-1	5,2 mN.m^-1	3,6 mN.m^-1	ne perturbent pas la croissance, la multiplication et le repiquage de ces cultures	ne provoquent pas l'hémolyse	bien tolérée	–	–	–	–	–	–
O=C(O)CNC(=O)CCC(F)(F)C(F)(F)C(F)(F)C(F)(F)C(F)(F)C(F)(F)C(F)(F)C(F)(F)F [(F-octyl-3' propylcarbamoyl) éthanoate de sodium]	43,2 mN.m^-1	38,8 mN.m^-1	41,3 mN.m^-1	25,2 mN.m^-1	–	–	–	21,6 mN.m^-1	7,1 mN.m^-1	–	–	–	–
C[N+](C)(C)C(CCC(F)(F)C(F)(F)C(F)(F)C(F)(F)F)C(=O)[O-] (centres unmarked) [(F-butyl-2')éthyl bétaïne de l'Ex. 4, F-(butyl-2')éthyl bétaïne]	–	68,4 mN.m^-1	–	48,0 mN.m^-1	–	–	–	49,3 mN.m^-1	34,5 mN.m^-1	ne perturbent pas la croissance, la multiplication et le repiquage de ces cultures	ne provoquent pas l'hémolyse	bien tolérée	–
C[N+](C)(C)C(CCC(F)(F)C(F)(F)C(F)(F)C(F)(F)C(F)(F)C(F)(F)F)C(=O)[O-] (centres unmarked) [(F-hexyl-2')éthyl bétaïne de l'Ex. 5, (F-hexyl-2')éthyl bétaïne]	–	39,3 mN.m^-1	–	22,4 mN.m^-1	–	–	–	20,0 mN.m^-1	3,1 mN.m^-1	ne perturbent pas la croissance, la multiplication et le repiquage de ces cultures	ne provoquent pas l'hémolyse	bien tolérée	–
C[N+](C)(C)C(CCC(F)(F)C(F)(F)C(F)(F)C(F)(F)C(F)(F)C(F)(F)C(F)(F)C(F)(F)F)C(=O)[O-] (centres unmarked) [(F-octyl-2')éthyl bétaïne de l'Ex. 6, (F-octyl-2')éthyl bétaïne]	25,6 mN.m^-1	19,9 mN.m^-1	7,5 mN.m^-1	3,4 mN.m^-1	–	–	–	19,1 mN.m^-1	2,8 mN.m^-1	ne perturbent pas la croissance, la multiplication et le repiquage de ces cultures	–	bien tolérée	ne provoquent pas l'hémolyse
C[C@H](CCC(=O)NC(CCC(F)(F)C(F)(F)C(F)(F)C(F)(F)C(F)(F)C(F)(F)F)C(=O)O)[C@H]1CC[C@H]2[C@@H]3[C@H](O)C[C@@H]4C[C@H](O)CC[C@]4(C)[C@H]3C[C@H](O)[C@]12C (some centres unmarked)	–	–	–	–	–	–	–	28,5 mN.m^-1	4,7 mN.m^-1	–	–	–	–
